The target in assay [1] is T1, Macrophage migration inhibitory factor (Homo sapiens) (UniProt P14174).
T1 sequence (whole entry): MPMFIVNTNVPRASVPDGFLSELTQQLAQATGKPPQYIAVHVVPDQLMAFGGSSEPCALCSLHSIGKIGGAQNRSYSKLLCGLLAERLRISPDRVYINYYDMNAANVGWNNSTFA
The assay can be described thus: Non-competitive inhibition of MIF (unknown origin) at 12.5 uM using pyruvic acid as substrate incubated for 10 mins by absorbance based analysis.

Assay [2] has as its target D-dopachrome decarboxylase (Homo sapiens, UniProt P30046). The assay can be described thus: Inhibition of DDT (unknown origin) expressed in Escherichia coli by absorbance based analysis.

pIC50: −log10 of the molar value. The source made the active and inactive calls. The calls are words filed in the database; no cut-off is given here.

Results on two compounds are retold here after ChEMBL document CHEMBL5614379, “The synthesis of 1,2,3-triazoles as binders of D-dopachrome tautomerase (D-DT) for the development of dual-targeting inhibitors” (Eur J Med Chem, 2024).

`COc1cccc2c1CC(NC(=O)c1cn(-c3ccc(Cl)c(C(F)(F)F)c3)nn1)CC2` (configuration not stated): the inhibition result in assay [1] was “Active”. As usually defined, the pIC50 is the IC50 on a negative log10 scale, so that one unit is a factor of ten. Lower therefore signals a high IC50. For `O=C(O)c1cccc(-c2cc(C(=O)O)ncc2C(=O)O)c1`, the pIC50 in assay [2] is 4.57.
